Results on 29 compounds are retold here after patent publication US20190308933A1, “PHENYLAMIDINES AND THE USE THEREOF AS FUNGICIDES” (priority 2016, published 2019).

Data set [1] is described as follows: Log P measurement by HPLC on reversed phase columns (EEC directive 79/831 Annex V.A8). The format is physicochemical. The settings on record: LC-UV; for chromatographic logP: reversed phase HPLC column. How it is done:
[table] Measurement of Log P values was performed according to EEC directive 79/831 Annex V.A8 by HPLC (High Performance Liquid Chromatography) on reversed phase columns with the following methods: If more than one Log P value is available within the same method, all the values are given and separated by “+”. […] Lambda-max-values were determined using UV-spectra from 200 nm to 400 nm and the peak values of the chromatographic signals.

The next data set concerns Phakopsora pachyrhizi. Kind of data set: In vivo preventive test on Phakopsora (soybeans). The settings on record: 168 h, young soybean plants sprayed, 10 ppm of active ingredient, evaluated 7 days after inoculation, 0% = untreated control, 100% = no disease, read-out: efficacy. Also noted: species or system Phakopsora pachyrhizi (soybean rust) on soybeans. How it is done: Example: In Vivo Preventive Test on Phakopsora Test (Soybeans)
To produce a suitable preparation of active compound, 1 part by weight of active compound is mixed with the stated amounts of solvent and emulsifier, and the concentrate is diluted with water to the desired concentration.
To test for preventive activity, young plants are sprayed with the preparation of active compound at the stated rate of application. After the spray coating has dried on, the plants are inoculated with an aqueous spore suspension of the causal agent of soybean rust (Phakopsora pachyrhizi) and stay for 24 h without light in an incubation cabinet at approximately 24° C. and a relative atmospheric humidity of 95%.
The plants remain in the incubation cabinet at approximately 24° C. and a relative atmospheric humidity of approximately 80% and a day/night interval of 12 h.
The test is evaluated 7 days after the inoculation. 0% means an efficacy which corresponds to that of the untreated control, while an efficacy of 100% means that no disease is observed.

[2] abbreviates: acidic range, 0.1% formic acid in water and acetonitrile as eluent (linear gradient 10% to 95% acetonitrile), read-out: LogP [a].
Setting [3] is: neutral range, 0.001 molar ammonium acetate solution in water and acetonitrile as eluent (linear gradient 10% to 95% acetonitrile), read-out: LogP [b].
The mark [4] stands for this setting: acidic range, 0.1% formic acid in water and acetonitrile as eluent (linear gradient 10% to 95% acetonitrile).
[5] abbreviates: neutral range, 0.001 molar ammonium acetate solution in water and acetonitrile as eluent (linear gradient 10% to 95% acetonitrile).

The structures appear in SMILES notation. Like-named read-outs stand apart in the source and are kept apart here.

For the compound `CCN(C)C=Nc1cc(C)c(Cc2ccccc2C#N)cc1Cl` [Example 1, N′-[2-chloro-4-[(2-cyanophenyl)methyl]-5-methylphenyl]-N-ethyl-N-methylmethanimidamide], the results for the chromatographic logP in data set [1] (setting [2]) and in data set [1] (setting [3]) were 1.41 and 3.86, respectively. Moreover, in the data set with Phakopsora pachyrhizi, the pest or weed control at 10 ppm was 80 to 89%.

Turning to `CCN(C)C=Nc1cc(C)c(Cc2ccccc2F)cc1Cl` [Example 2, N′-[2-chloro-4-[(2-fluorophenyl)methyl]-5-methylphenyl]-N-ethyl-N-methylmethanimidamide], the results for the chromatographic logP in data set [1] (setting [2]) and in data set [1] (setting [3]) were 1.52 and 4.5, respectively. In the data set on Phakopsora pachyrhizi, the pest or weed control at 10 ppm was 90 to 100%.

Regarding `CCN(C)C=Nc1cc(C)c(Cc2ccccc2)cc1Cl` [Example 3, N′-(4-benzyl-2-chloro-5-methylphenyl)-N-ethyl-N-methylmethanimidamide], the chromatographic logP in data set [1] (setting [2]) is 1.49. For the same compound, the pest or weed control at 10 ppm in the data set with Phakopsora pachyrhizi lay within 90 to 100%.

On to `CCN(C)C=Nc1cc(Cl)c(Cc2ccccc2C#N)cc1C` [Example 4, N′-[5-chloro-4-[(2-cyanophenyl)methyl]-2-methylphenyl]-N-ethyl-N-methylmethanimidamide], for which the chromatographic logP in data set [1] (setting [2]) amounted to 1.38; in data set [1] (setting [3]), 4.38.

As for `CCN(C)C=Nc1cc(Cl)c(Cc2ccccc2F)cc1C` [Example 5], in data set [1] (setting [4]), the “LogP [a]” value was 1.58[a];. Also, the “LogP [b]” value in data set [1] (setting [5]) was 2.99[b].

Consider `CCN(C)C=Nc1cc(Cl)c(Cc2ccccc2)cc1C` [Example 6, N′-(4-benzyl-5-chloro-2-methylphenyl)-N-ethyl-N-methylmethanimidamide], for which the chromatographic logP in data set [1] (setting [2]) was 1.72; in data set [1] (setting [3]), 5.16. Further, the pest or weed control at 10 ppm in the data set on Phakopsora pachyrhizi is 90 to 100%.

On to `CCN(C)C=Nc1cc(C)c(Cc2ccccc2Cl)cc1C` [Example 7, N′-[4-[(2-chlorophenyl)methyl]-2,5-dimethylphenyl]-N-ethyl-N-methylmethanimidamide], for which the chromatographic logP in data set [1] (setting [2]) stood at 1.92; in data set [1] (setting [3]), 5.16.

Take `CCN(C)C=Nc1cc(C)c(Cc2ccccc2C#N)cc1C` [Example 8, N′-[4-[(2-cyanophenyl)methyl]-2,5-dimethylphenyl]-N-ethyl-N-methylmethanimidamide]: the chromatographic logP in data set [1] (setting [2]) stood at 1.47; in data set [1] (setting [3]), 4.15. Besides, the pest or weed control at 10 ppm in the data set with Phakopsora pachyrhizi is 90 to 100%.

Consider `CCN(C)C=Nc1cc(C)c(Cc2ccc(F)cc2F)cc1C` [Example 9, N′-[4-[(2,4-difluorophenyl)methyl]-2,5-dimethylphenyl]-N-ethyl-N-methylmethanimidamide], for which the chromatographic logP is 1.79 in data set [1] (setting [2]) and 4.86 in data set [1] (setting [3]). The pest or weed control at 10 ppm in the data set on Phakopsora pachyrhizi lay within 90 to 100%.

On to `CCN(C)C=Nc1cc(C)c(Cc2ccccc2F)cc1C` [Example 10, N-ethyl-N′-[4-[(2-fluorophenyl)methyl]-2,5-dimethylphenyl]-N-methylmethanimidamide], for which the chromatographic logP in data set [1] (setting [2]) turned out to be 1.6; in data set [1] (setting [3]), 4.87. Also, the pest or weed control at 10 ppm with Phakopsora pachyrhizi lay within 90 to 100%.

Consider `CCN(C)C=Nc1cc(C)c(Cc2ccccc2)cc1C` [Example 11, N′-(4-benzyl-2,5-dimethylphenyl)-N-ethyl-N-methylmethanimidamide], for which the chromatographic logP came to 1.58 in data set [1] (setting [2]) and 4.9 in data set [1] (setting [3]). Besides, the pest or weed control at 10 ppm with Phakopsora pachyrhizi is 90 to 100%.

For `Cc1cc(N=CN(C)C(C)C)c(C)cc1Cc1ccc(F)cc1F` [Example 12, N′-[4-[(2,4-difluorophenyl)methyl]-2,5-dimethylphenyl]-N-isopropyl-N-methylmethanimidamide], the chromatographic logP in data set [1] (setting [2]) is 1.92; in data set [1] (setting [3]), 5.31. In the data set with Phakopsora pachyrhizi, the pest or weed control at 10 ppm was in the range of 90 to 100%.

Take `CCN(C)C=Nc1cc(C)c(C2(c3ccccc3)CC2)cc1C` [Example 13, N′-[2,5-dimethyl-4-(1-phenylcyclopropyl)phenyl]-N-ethyl-N-methylmethanimidamide]: the chromatographic logP in data set [1] (setting [2]) amounted to 1.85. The pest or weed control at 10 ppm in the data set with Phakopsora pachyrhizi was in the range of 90 to 100%.

For `CCN(C)C=Nc1cc(C)c(C2(c3ccccc3)CC2(F)F)cc1C` (stereo not shown) [Example 14, N′-[4-(2,2-difluoro-1-phenylcyclopropyl)-2,5-dimethylphenyl]-N-ethyl-N-methylmethanimidamide], the chromatographic logP in data set [1] (setting [2]) came to 1.63. The pest or weed control at 10 ppm with Phakopsora pachyrhizi was in the range of 90 to 100%.

As for `CCN(C)C=Nc1cc(C)c(C2(c3ccccc3)CC2(Cl)Cl)cc1C` (stereo not shown) [Example 15, N′-[4-(2,2-dichloro-1-phenylcyclopropyl)-2,5-dimethylphenyl]-N-ethyl-N-methylmethanimidamide], the chromatographic logP in data set [1] (setting [2]) was 1.83.

In the case of `CCN(C)C=Nc1cc(C)c(C2(c3ccccc3)CC2(Br)Br)cc1C` (stereo not shown) [Example 16, N′-[4-(2,2-dibromo-1-phenylcyclopropyl)-2,5-dimethylphenyl]-N-ethyl-N-methylmethanimidamide], the chromatographic logP in data set [1] (setting [2]) worked out at 1.89.

As to `CCN(C)C=Nc1cc(Cl)c(C(C)c2ccccc2)cc1C` (stereo not shown) [Example 18, N′-[5-chloro-2-methyl-4-(1-phenylethyl)phenyl]-N-ethyl-N-methylmethanimidamide], the results for the chromatographic logP in data set [1] (setting [2]) and in data set [1] (setting [3]) were 1.58 and 5.32, respectively. Also, the pest or weed control at 10 ppm in the data set on Phakopsora pachyrhizi was in the range of 90 to 100%.

Consider `C=C(c1ccccc1)c1cc(C)c(N=CN(C)CC)cc1Cl` [Example 19, N′-[5-chloro-2-methyl-4-(1-phenylethen-1-yl)phenyl]-N-ethyl-N-methylmethanimidamide], for which the figures for the chromatographic logP in data set [1] (setting [2]) and in data set [1] (setting [3]) were 1.58 and 5.24, respectively. Moreover, in the data set with Phakopsora pachyrhizi, the pest or weed control at 10 ppm was 80 to 89%.

Regarding `CCN(C)C=Nc1cc(F)c(Cc2ccccc2)cc1C` [Example 20, N′-(4-benzyl-5-fluoro-2-methylphenyl)-N-ethyl-N-methylmethanimidamide], the chromatographic logP amounted to 2 in data set [1] (setting [2]) and 4.62 in data set [1] (setting [3]). For the same compound, the pest or weed control at 10 ppm in the data set on Phakopsora pachyrhizi fell in the range of 90 to 100%.

As for `CCN(C)C=Nc1cc(Cl)c(Cc2ccccc2-c2ccccc2)cc1C` [Example 25, N′-[5-chloro-2-methyl-4-[(2-phenylphenyl)methyl]phenyl]-N-ethyl-N-methylmethanimidamide], the chromatographic logP was 2.05 in data set [1] (setting [2]) and 6.02 in data set [1] (setting [3]).

Regarding `CCN(C)C=Nc1cc(C)c(Cc2ccccc2OC)cc1Cl` [Example 26, N′-[2-chloro-4-[(2-methoxyphenyl)methyl]-5-methylphenyl]-N-ethyl-N-methylmethanimidamide], the chromatographic logP in data set [1] (setting [2]) turned out to be 1.53; in data set [1] (setting [3]) it was 4.45.

In the case of `CCN(C)C=Nc1cc(C)c(C(C)c2ccccc2)cc1Cl` (stereo not shown) [Example 27, N′-[2-chloro-5-methyl-4-(1-phenylethyl)phenyl]-N-ethyl-N-methylmethanimidamide], the figures for the chromatographic logP in data set [1] (setting [2]) and in data set [1] (setting [3]) were 1.61 and 4.7, respectively.

Turning to `CCN(C)C=Nc1cc(C)c(Cc2ccccc2Cl)cc1Cl` [Example 28, N′-[2-chloro-4-[(2-chlorophenyl)methyl]-5-methylphenyl]-N-ethyl-N-methylmethanimidamide], the values for the chromatographic logP in data set [1] (setting [2]) and in data set [1] (setting [3]) were 1.63 and 4.93, respectively.

With `CCN(C)C=Nc1cc(Cl)c(Cc2ccccc2OC)cc1C` [Example 29], in data set [1] (setting [4]), the “LogP [a]” value was 1.58^[a];. Also, the “LogP [b]” value in data set [1] (setting [5]) was 4.95^[b].

`C=C(c1ccccc1)c1cc(Cl)c(N=CN(C)CC)cc1C` [Example 31, N′-[2-chloro-5-methyl-4-(1-phenylethen-1-yl)phenyl]-N-ethyl-N-methylmethanimidamide]: the chromatographic logP in data set [1] (setting [2]) was determined as 1.66; in data set [1] (setting [3]) it was 4.93.

Take `CCN(C)C=Nc1cc(F)c(Cc2ccccc2OC)cc1C` [Example 32, N-ethyl-N′-[5-fluoro-4-[(2-methoxyphenyl)methyl]-2-methylphenyl]-N-methylmethanimidamide]: the chromatographic logP was 1.46 in data set [1] (setting [2]) and 4.34 in data set [1] (setting [3]).

Turning to `CCN(C)C=Nc1cc(F)c(Cc2ccccc2F)cc1C` [Example 33, N-ethyl-N′-[5-fluoro-4-[(2-fluorophenyl)methyl]-2-methylphenyl]-N-methylmethanimidamide], the chromatographic logP in data set [1] (setting [2]) is 1.41; in data set [1] (setting [3]) it was 4.37.

With `CCN(C)C=Nc1cc(F)c(C(C)c2ccccc2)cc1C` (stereo not shown) [Example 34, N-ethyl-N′-[5-fluoro-2-methyl-4-(1-phenylethyl)phenyl]-N-methylmethanimidamide], the figures for the chromatographic logP in data set [1] (setting [2]) and in data set [1] (setting [3]) were 1.55 and 4.63, respectively.

Take `CCN(C)C=Nc1cc(F)c(Cc2ccc(F)cc2F)cc1C` [Example 35, N′-[4-[(2,4-difluorophenyl)methyl]-5-fluoro-2-methylphenyl]-N-ethyl-N-methylmethanimidamide]: the results for the chromatographic logP in data set [1] (setting [2]) and in data set [1] (setting [3]) were 1.52 and 4.54, respectively.
